The target in the assay is SARS-CoV-2 S D614G (Severe acute respiratory syndrome coronavirus 2, UniProt P0DTC2, D614G). In kind it is cell-based. Conditions: read-out: IC90, inhibition of S-mediated cell–cell fusion, SARS-CoV-2 D614G.
The IC90 is the concentration at which the effect reaches the 90% level. With “Ac-DISQINASVVNIEYEIKKLEEVAKKLEESLIDLQEL-NH2 [QE]”, the IC90 is 0.07 ± 0.01 µM.

For “Ac-PDVDLGDISQINASVVNIEYEIKKLEEVAKKLEESLIDLQEL-NH2 [QE-EXT]”, the IC90 worked out at 0.09 ± 0.02 µM.

As to “Ac-SIDQINATFVDIEYEIKKLEEVAKKLEESYIDLKEL-NH2 [SK]”, the concentration for an effect of 90% (IC90) worked out at 0.096 ± 0.02 µM.

(Values after article PMC11915835, “Enhancing the solubility of SARS-CoV-2 inhibitors to increase future prospects for clinical development” (Journal of Virology, 2025).)
